Assay results taken from patent publication US20050070552A1, “Ion channel modulating activity I” (Cardiome Pharma Corp., priority 2003, published 2005).
Where two headings read alike, the source gives them in different places.

Legend:
[1] = target: human heart sodium channels (hH1) (Homo sapiens, UniProt Q14524); format: cell-based
[2] = format: in vivo, rabbit
Protocol: Briefly, continuous infusion of COMPOUND A was administered prior to continuous infusion of methoxamine and followed by clofilium. The incidence of TdP (the number of animals in which TdP occurred) was compared to experiments in which COMPOUND A was not infused.
The following procedure was used: (1) Female NZW rabbits were weighed and anaesthetised initially with 35 mg/kg sodium pentobarbital via ear vein (60 mg/mL) using a sterile 23G 3/4 needle. Additional doses (in increments of 0.2-0.3 mL) were used if required to attain and maintain sufficient anaesthesia as determined by abolishment of eyelid reflex. Care was taken not to over anaesthetize as this could cause respiratory and cardiac arrest. (2) The anaesthetised rabbit was placed on a rabbit restraining board in the supine position and limbs were tied down. (3) The fur in the neck and inguinal region were wetted with water and trimmed down to the skin with scissors to facilitate dissection. Fur was placed in a water-filled beaker to prevent fur from becoming airborne. (4) The left or right femoral artery was cannulated with PE 50 tubing and attached to a pressure transducer to monitor blood pressure. (5) The right and left jugular veins were cannulated using PE-90 tubing for drug delivery via an infusion pump. (6) The left or right femoral vein was cannulated using PE-50 tubing for drug delivery via an infusion pump. (7) ECG leads were attached as follows: the ground lead was inserted subcutaneously into the femoral vein region; one lead was inserted subcutaneously near the apex of the heart and the third lead was placed in the open surgical area near the right jugular vein. (8) Control recordings of ECG and blood pressure were taken for 5 minutes to observe pre-drug effects. Recordings were continued throughout the entire experiment. (9) Arterial K^+ concentration was measured with the hand-held I-STAT blood-gas analyzer prior to infusion of arrhythmogenic agent and at the end of the experiment. […] Infusion was continued throughout the experiment. (11) After a further 5 minutes, methoxamine was administered at 20 μg/kg/min via the femoral vein. Methoxamine infusion was also continued throughout the experiment. (12) 10 minutes following the start of methoxamine infusion, clofilium was infused via a jugular vein. (13) In COMPOUND A-pretreated animals and controls, recording continued for 15 minutes regardless of whether TdP is seen or not. (14) A blood sample was collected when the experimental endpoint was reached, immediately after the infusion pumps were stopped.
COMPOUND A was applied and examined as described. To analyze the data, the parameters measured are (1) incidence of TdP (2) duration of TdP episodes (3) arterial K^+ concentration, (4) PR, QRS and QTc intervals during normal sinus rhythm (until arrhythmias begin and determination is no longer possible), (5) BP, and (6) HR.

rabbit Purkinje fibers [3] = test: Action potential duration in rabbit Purkinje fibers; format: cell-based; conditions: n=10
Protocol: A midline thoracotomy was performed and the heart was excised as practised by those skilled in the art. […] The heart was perfused with standard bicarbonate buffered Krebs' solution known to those skilled in the art. An electrode was pulled from thin-walled filamented borosilicate glass capillary tubes having a resistance of 10 to 30 megaohms when filled with 3 M KCl. The electrode was attached to headstage mounted on an Axoclamp 2A amplifier (or a similar amplifier known to those skilled in the art). The microelectrode was brought down upon an exposed Purkinje fiber using a micromanipulator and the position was adjusted until the electrode penetrated a single Purkinje cell. The Purkinje fiber network was stimulated using a biphasic stimulation pulse and subsequent action potentials were recorded for analysis.

rabbit Purkinje fibers [4] = conditions: cited from earlier work
hH1 sodium channel = target: T1, hH1 sodium channel (Homo sapiens, UniProt Q14524); test: Inactivated state inhibition of hH1 sodium channel current (prepulse protocol); format: cell-based
T1 construct: expressed in transfected cells; host or cells: HEK293
T1 sequence (Q14524 whole entry): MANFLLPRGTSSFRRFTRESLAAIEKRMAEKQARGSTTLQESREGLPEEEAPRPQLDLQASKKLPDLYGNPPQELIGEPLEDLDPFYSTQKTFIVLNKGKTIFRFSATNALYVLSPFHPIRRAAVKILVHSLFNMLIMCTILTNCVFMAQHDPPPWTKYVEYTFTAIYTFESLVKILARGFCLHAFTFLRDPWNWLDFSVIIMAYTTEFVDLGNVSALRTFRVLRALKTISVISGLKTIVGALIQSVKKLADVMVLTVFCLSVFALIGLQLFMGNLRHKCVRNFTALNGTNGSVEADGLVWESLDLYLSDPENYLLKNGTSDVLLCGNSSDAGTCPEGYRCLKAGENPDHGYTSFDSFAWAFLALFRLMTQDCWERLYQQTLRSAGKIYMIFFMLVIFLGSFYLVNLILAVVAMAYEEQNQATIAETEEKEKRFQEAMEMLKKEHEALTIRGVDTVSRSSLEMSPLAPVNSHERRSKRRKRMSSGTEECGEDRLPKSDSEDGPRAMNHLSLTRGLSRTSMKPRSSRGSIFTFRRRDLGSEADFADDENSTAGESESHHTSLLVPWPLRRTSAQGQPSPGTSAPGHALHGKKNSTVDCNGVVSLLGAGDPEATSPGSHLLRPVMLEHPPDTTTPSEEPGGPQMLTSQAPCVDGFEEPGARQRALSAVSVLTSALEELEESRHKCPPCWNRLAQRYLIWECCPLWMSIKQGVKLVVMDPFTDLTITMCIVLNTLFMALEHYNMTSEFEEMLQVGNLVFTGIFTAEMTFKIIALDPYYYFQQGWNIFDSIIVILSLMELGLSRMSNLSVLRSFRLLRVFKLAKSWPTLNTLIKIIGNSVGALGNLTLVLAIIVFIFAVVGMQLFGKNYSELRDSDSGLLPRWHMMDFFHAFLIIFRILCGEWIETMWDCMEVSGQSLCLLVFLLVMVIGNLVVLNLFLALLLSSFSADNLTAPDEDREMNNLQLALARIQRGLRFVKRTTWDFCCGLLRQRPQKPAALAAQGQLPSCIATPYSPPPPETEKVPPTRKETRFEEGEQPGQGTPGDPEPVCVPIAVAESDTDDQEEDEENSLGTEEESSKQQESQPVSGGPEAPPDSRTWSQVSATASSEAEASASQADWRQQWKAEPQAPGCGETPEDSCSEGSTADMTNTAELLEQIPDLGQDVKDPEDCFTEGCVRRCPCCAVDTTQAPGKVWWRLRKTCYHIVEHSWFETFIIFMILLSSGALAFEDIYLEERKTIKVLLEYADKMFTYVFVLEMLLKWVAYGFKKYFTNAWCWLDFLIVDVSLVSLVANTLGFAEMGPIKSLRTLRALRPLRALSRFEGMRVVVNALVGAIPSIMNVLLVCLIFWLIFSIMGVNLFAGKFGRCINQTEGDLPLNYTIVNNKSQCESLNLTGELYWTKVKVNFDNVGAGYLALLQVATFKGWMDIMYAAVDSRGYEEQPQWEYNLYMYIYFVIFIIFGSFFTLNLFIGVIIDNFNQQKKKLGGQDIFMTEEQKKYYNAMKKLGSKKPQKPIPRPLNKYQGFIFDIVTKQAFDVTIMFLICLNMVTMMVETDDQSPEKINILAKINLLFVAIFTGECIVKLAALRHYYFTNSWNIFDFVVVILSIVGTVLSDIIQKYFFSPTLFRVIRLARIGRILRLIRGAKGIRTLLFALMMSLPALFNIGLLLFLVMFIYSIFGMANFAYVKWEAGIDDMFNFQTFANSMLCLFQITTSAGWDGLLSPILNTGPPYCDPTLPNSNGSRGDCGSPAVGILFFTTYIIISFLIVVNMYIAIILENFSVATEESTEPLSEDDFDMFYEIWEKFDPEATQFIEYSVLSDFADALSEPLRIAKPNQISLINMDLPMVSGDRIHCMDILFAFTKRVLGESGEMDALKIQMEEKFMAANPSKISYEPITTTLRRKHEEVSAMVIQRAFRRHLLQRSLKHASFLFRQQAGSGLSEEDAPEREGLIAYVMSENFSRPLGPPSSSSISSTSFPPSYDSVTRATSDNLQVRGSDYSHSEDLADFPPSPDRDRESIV

[5] = system: isolated rabbit Purkinje fibers; conditions: 100 μM
[6] = methoxamine plus clofilium, no pretreatment
[7] = 300 nM dofetilide in the presence of DMSO

Sequence of human heart sodium channels (hH1) (Q14524 whole entry, looked up): as the sequence (Q14524 whole entry) above

Structure (SMILES): NC1=N[C@H](O)[C@H]2[C@H]3O[C@]4(O)O[C@@H]([C@@H](O)[C@@]2(N1)[C@@H]4O)[C@]3(O)CO [TTX, tetrodotoxin]
- block of unsubtracted Iearly [1]: completely

Structure (SMILES): CCCCCCC[N+](CC)(CC)CCCCc1ccc(Cl)cc1 [clofilium]
- TdP incidence (animals) ([2]; methoxamine 20 μg/kg/min plus clofilium 300 nmol/kg/min, no pretreatment): 7 of 9
- increase in QTc interval 2.5 minutes after starting clofilium ([2]; methoxamine and clofilium without any pretreatment): 20±11%
- cumulative dose of clofilium at TdP [2, 6]: 1.4 ± 0.2 mg/kg
- time to TdP after starting clofilium infusion [2, 6]: 7.0 ± 1.3 min
- time to first PVC after starting clofilium infusion [2, 6]: 3.3 ± 0.5 min

Structure (SMILES): CN(CCOc1ccc(NS(C)(=O)=O)cc1)CCc1ccc(NS(C)(=O)=O)cc1 [dofetilide]
- increase in APD90 (rabbit Purkinje fibers [3]; [7]): 92%
- percentage increase in APD50 (rabbit Purkinje fibers [3]; [7]): 86%
- Vmax (rabbit Purkinje fibers [3]; dofetilide and DMSO): 253±48 V/s
- increase of APD90 (rabbit Purkinje fibers [4]; 10 nM, BCL=1000 ms): 83%

Structure (SMILES): CCN(CC)CC(=O)Nc1c(C)cccc1C [lidocaine]
- block of TTX-sensitive early current Iearly(TTX) [1]: 41±2.7%
- block of TTX-sensitive late current Ilate(TTX) [1]: 73±2.8%
- block of TTX-sensitive sustained current Isus(TTX) [1]: 70±2.5%
- hH1 inhibition with longer prepulses (inactivated state inhibition) (hH1 sodium channel): enhanced inhibition
- termination of EADs induced by 300 nM dofetilide [5]: terminated

Structure (SMILES): C=C[C@H]1C[N@@]2CC[C@H]1C[C@@H]2[C@@H](O)c1ccnc2ccc(OC)cc12 [quinidine]
- increase of APD90 (rabbit Purkinje fibers [4]; 10 μM): 93%
